Several values for one entry are separate records, joined by “and”; a condition that tells them apart may be missing. Equal entries are not always repeated.
What was measured:
[1] = Liquid; for mass density: Vibrating tube method
[2] = refractive index (Na D-line) (dimensionless); conditions: 298.15 K; 101.33 kPa; Liquid; Standard Abbe refractometry
[3] = Boiling temperature at pressure P; conditions: Liquid, Ebulliometric method (Recirculating still)

CC1CCC(=O)O1 (stereo not given) [γ-valerolactone]
[1]
Conditions	mass density	vapor or sublimation pressure [kPa]
293.15 K, 186 kPa	1053.38 kg/m3	–
293.15 K, 187.01 kPa	1053.43 kg/m3	–
293.15 K, 476.37 kPa	1053.68 kg/m3	–
293.15 K, 977 kPa	1054.07 kg/m3	–
293.15 K, 1979.3 kPa	1054.81 kg/m3	–
293.15 K, 2978.5 kPa	1055.47 kg/m3	–
293.15 K, 3976.8 kPa	1056.08 kg/m3	–
293.15 K, 4978.1 kPa	1056.65 kg/m3	–
298 K, 101.33 kPa	1049.2 kg/m3	–
298.1 K, 107 kPa	1048.8 kg/m3	–
298.16 K, 187.01 kPa	1048.68 kg/m3	–
298.16 K, 189.01 kPa	1048.83 kg/m3	–
298.16 K, 480.38 kPa	1048.97 kg/m3	–
298.16 K, 978 kPa	1049.41 kg/m3	–
298.16 K, 1980.3 kPa	1050.16 kg/m3	–
298.16 K, 2980.5 kPa	1050.86 kg/m3	–
298.16 K, 3977.8 kPa	1051.48 kg/m3	–
298.16 K, 4976.1 kPa	1052.05 kg/m3	–
350.18 K, Closed cell (Static) method	–	1.2
353.15 K, 187.01 kPa	996.384 kg/m3	–
353.15 K, 190.01 kPa	996.734 kg/m3	–
353.15 K, 194.01 kPa	997.077 kg/m3	–
353.15 K, 198.02 kPa	997.127 kg/m3	–
353.15 K, 484.38 kPa	996.824 kg/m3	–
353.15 K, 492.39 kPa	997.272 kg/m3	–
353.15 K, 979.01 kPa	997.655 kg/m3	–
353.15 K, 984.01 kPa	997.904 kg/m3	–
353.15 K, 985.01 kPa	997.898 kg/m3	–
353.15 K, 1981.3 kPa	998.74 kg/m3	–
353.15 K, 1987.3 kPa	998.832 kg/m3	–
353.15 K, 1988.3 kPa	998.837 kg/m3	–
353.15 K, 2979.5 kPa	999.633 kg/m3	–
353.15 K, 2985.5 kPa	999.73 kg/m3 and 999.724 kg/m3	–
353.15 K, 3979.8 kPa	1000.43 kg/m3	–
353.15 K, 3983.8 kPa	1000.53 kg/m3	–
353.15 K, 3986.8 kPa	1000.53 kg/m3	–
353.15 K, 4978.1 kPa	1001.2 kg/m3	–
353.15 K, 4983.1 kPa	1001.29 kg/m3	–
353.15 K, 4984.1 kPa	1001.29 kg/m3	–
353.16 K, 188.01 kPa	997.169 kg/m3	–
353.16 K, 489.39 kPa	997.314 kg/m3	–
393.15 K, 180 kPa	958.067 kg/m3	–
393.15 K, 182 kPa	958.857 kg/m3 and 958.463 kg/m3	–
393.15 K, 486.38 kPa	958.065 kg/m3	–
393.15 K, 491.39 kPa	958.888 kg/m3	–
393.15 K, 978 kPa	959.43 kg/m3	–
393.15 K, 984.01 kPa	959.712 kg/m3	–
393.15 K, 1981.3 kPa	960.847 kg/m3	–
393.15 K, 1985.3 kPa	960.883 kg/m3	–
393.15 K, 2980.5 kPa	961.927 kg/m3	–
393.15 K, 2984.5 kPa	961.921 kg/m3	–
393.15 K, 3978.8 kPa	962.917 kg/m3	–
393.15 K, 3981.8 kPa	962.913 kg/m3	–
393.15 K, 4977.1 kPa	963.866 kg/m3	–
393.15 K, 4979.1 kPa	963.861 kg/m3	–
393.16 K, 203.03 kPa	958.939 kg/m3	–
433.14 K, 184 kPa	918.984 kg/m3	–
433.15 K, 181 kPa	918.395 kg/m3	–
433.15 K, 492.39 kPa	919.562 kg/m3	–
433.15 K, 1984.3 kPa	921.775 kg/m3	–
433.15 K, 2984.5 kPa	923.091 kg/m3	–
433.15 K, 3983.8 kPa	924.314 kg/m3	–
433.15 K, 4980.1 kPa	925.496 kg/m3	–
433.16 K, 491.39 kPa	919.299 kg/m3	–
433.16 K, 982.01 kPa	920.309 kg/m3	–
453.14 K, 183 kPa	898.494 kg/m3	–
453.15 K, 199.02 kPa	898.908 kg/m3	–
453.15 K, 490.39 kPa	898.859 kg/m3	–
453.15 K, 983.01 kPa	900.059 kg/m3	–
453.15 K, 1982.3 kPa	901.6 kg/m3	–
453.15 K, 2985.5 kPa	903.051 kg/m3	–
453.15 K, 3983.8 kPa	904.412 kg/m3	–
453.15 K, 4981.1 kPa	905.731 kg/m3	–

Conditions	refractive index
[2]	1.4316

[3]
Conditions	Boiling temperature at pressure P [°C]
0.58 kPa	65.0
1.14 kPa	77.5
1.49 kPa	83.04
1.86 kPa	87.47
2.49 kPa	93.77
4.37 kPa	106.5
8.66 kPa	123.7
10.61 kPa	129.4
11.92 kPa	132.8
16.51 kPa	142.2
20.17 kPa	148.1
27.32 kPa	157.78
35.64 kPa	166.5
43.21 kPa	173.18
61.04 kPa	185.72
82.18 kPa	197.04
